According to US4076821A (priority 1976, dated 1978):

Key:
animal or person = type: in vivo; conditions: Rattus norvegicus, po, read-out: ED50, anti-apomorphine effect
in vivo = conditions: mouse, po

Row | Structure (SMILES) | ED50 (animal or person) [mg/kg] | LD50 (in vivo) [mg/kg]
1 | O=c1[nH]c2ccccc2n1C1CCN(CCCC(c2ccc(F)cc2)c2ccc(F)cc2)CC1 [Pimozide, 1-[1-(4,4-bis(p-fluorophenyl)butyl)-4-piperidyl]-2-benzimidazolinone, reference compound] | 0.25 | > 1000
2 | Cl.OC1(c2ccc(Cl)c(C(F)(F)F)c2)CCN(C2CCC(c3ccc(F)cc3)(c3ccc(F)cc3)CC2)CC1 [Test Compound A, 1-[4,4-bis(p-fluorophenyl)cyclohexyl]-4-(4-chloro-3-trifluoromethylphenyl)-4-piperidinol hydrochloride] | 2.46 | ≥ 464
3 | O=C1NCN(c2ccc(F)cc2)C12CCN(C1CCC(c3ccc(F)cc3)(c3ccc(F)cc3)CC1)CC2 [Test Compound B, 8-[4,4-bis(p-fluorophenyl)cyclohexyl]-1-(p-fluorophenyl)-1,3,8-triazaspiro[4.5]decan-4-one] | 0.1 | 
4 | O=C1NCN(c2ccc(Cl)cc2)C12CCN(C1CCC(c3ccc(F)cc3)(c3ccc(F)cc3)CC1)CC2 [Test Compound E, 8-[4,4-bis(p-fluorophenyl)cyclohexyl]-1-(p-chlorophenyl)-1,3,8-triazaspiro[4.5]decan-4-one] | 0.28 | ≥ 464
5 | O=C(CCCN1CCC(O)(c2ccc(Cl)cc2)CC1)c1ccc(F)cc1 [Haloperidol, 1-[3-(p-fluorobenzoyl)propyl]-4-(p-chlorophenyl)-4-piperidinol, reference compound] | 0.5 | > 100
